Measured values as given in US8110544B2, “RasGAP derived peptide for selectively killing cancer cells” (Universite de Lausanne, priority 2003, dated 2012).

What was measured:
Assay type in all cases: cell-based, human
[1] = test system: HeLa, U2OS, H-Meso1, MCF-7, HaCat and HUV-EC-C cell lines; experiment: Cellular uptake of FITC-labelled peptide (epifluorescence of live cells); conditions: FITC-labelled peptide 20 μM
Experimental: The following cell lines (HeLa, U2OS, H-Meso1, MCF-7, HaCat and HUV-EC-C) were incubated 3 hours at 37° C., 5% CO2 in culture medium with 20 μM FITC-labelled TAT-RasGAP317-326 peptide and then washed three times with culture medium.
Fluorescein isothiocyanate (FITC)-labeling was performed on the sequence β-alanine-[…] (SEQ ID NO: 16) whose side chain Fmoc-protected amino acids were Arg(bpf), Lys(Boc), Gln(Trt), Trp(Boc), Thr(tBu), Asn(Trt), and Asp(OtBu). The peptide was synthesized stepwise on 0.2 mmol Rink Amide AM resin using Fmoc chemistry. The synthesis was monitored by ninhydrin test. After the coupling of β-alanine, the Fmoc group was removed with 20% piperidine in dimethylformamide (DMF). At this stage, a fluorescein group was conjugated to the N-terminus of peptide with FITC (5 fold excess over the substitution of the resin in 4 ml DMF and 1 ml N-ethyldiisopropylamine) to form the fluorescein-derivated peptide.
If a plasmid encoding amino acid 317-326 of RasGAP has the ability to enhance the ability of a drug to kill cancer cells, a synthetic peptide corresponding to the […] should also display this activity provided that it can penetrate cells. […] We first assessed the sensitivity of the cancer cell lines towards increasing concentrations of the three genotoxins (data not shown). […]

p38 MAPKs = experiment: Western blot of phospho-p38 in U2OS cells; conditions: 20 μM peptide
Experimental: (§1) U2OS cells (2×10^5) were plated in 6 well plates and treated for the indicated periods of time with the indicated combinations of the HW-TAT48-57 or TAT-RasGAP317-326 peptides (at a 20 μM concentration) and cisplatin (at a 30 μM concentration). Positive controls for JNK and p38 activation were obtained following stimulation of the cells with 1 μg/ml anisomycine during 3 hours and with 0.5 M sorbitol for 30 min, respectively. The quantitations depicted under the Western blots were performed on the 12-hour bands and normalized against the positive controls. The results correspond to the mean±standard deviation of three independent experiments. […]

U2OS cells = experiment: Apoptosis of transfected (GFP-positive) U2OS cells with or without IκBαΔN2; conditions: 20 μM peptide, IkBαΔN2 expressed, 20 hours
Experimental: (§2) U2OS cells were transfected with 1 μg of a firefly luciferase reporter plasmid for NFκB activity, 0.1 μg of a plasmid encoding the Renilla luciferase, 0.5 μg of a GFP-expressing plasmid (to label the transfected cells), 1 μg of a plasmid encoding IκBαΔN2 that inhibit the NFκB pathway or with 1 μg an empty pcDNA3 vector. The cells were incubated one day later with increasing concentrations of cisplatin in the presence of 20 μM HIV-TAT48-57 or 20 μM TAT-RasGAP317-326 for an additional 20 hour period. The cells were then lysed and the NFκB activity assessed as described in panel A, except that the results were expressed as fold increase of the NFκB activity detected in cells incubated with the control HV-TAT48-57 peptide.
Alternatively, the number of GFP-positive cells displaying pycnotic nucleus was determined. The results correspond to the mean±standard deviation of three independent determinations.
Apoptosis was determined by scoring the number of cells displaying pycnotic nuclei. Nuclei of live cells were labeled with Hoechst 33342 (10 μg/ml final concentration) for about 5 minutes and the cells were then analyzed (at least 400 cells per condition) using an inverted Leica DMIRB microscope equipped with fluorescence and transmitted light optics. […] In this case, the extent of apoptosis was assessed in the transfected cells only.

JNK = experiment: Western blot of phospho-JNK in U2OS cells; conditions: 20 μM peptide
Experimental: as §1

[2] = test system: cancer cell lines (HeLa, U2OS, MCF-7, and H-Meso1); experiment: Genotoxin-induced apoptosis (pycnotic nuclei) in cancer cell lines with or without peptides; conditions: 20 μM peptide
Experimental: Four cancer cell lines (HeLa, U2OS, MCF-7, and H-Meso1) were plated in 6-wells plates and treated with the indicated concentrations of cisplatin, adriamycin and mitoxantrone in the absence or in the presence of either 20 μM MV-TAT48-57 Or TAT-RaSGAP317-326 peptides for 20 hours. The number of cells displaying pycnotic nucleus was then scored. The results correspond to the mean±standard deviation of three independent determinations. Asterisks denote significant differences between the genotoxin-treated cells incubated with TAT-RaSGAP317-326 and those left untreated or incubated with the HIV-TAT48-57 peptide (**, p<0.01; ***, p<0.001).
Apoptosis was determined by scoring the number of cells displaying pycnotic nuclei. Nuclei of live cells were labeled with Hoechst 33342 (10 μg/ml final concentration) for about 5 minutes and the cells were then analyzed (at least 400 cells per condition) using an inverted Leica DMIRB microscope equipped with fluorescence and transmitted light optics. Assessment of apoptosis was performed one day after the transfection or treatment of the cells. In experiment involving transfected cells, pEGFP-C1 was included in the transfection solution to label the transfected cells with GFP. In this case, the extent of apoptosis was assessed in the transfected cells only. […]

NFκB activity = experiment: NFκB firefly luciferase reporter assay in U2OS cells; conditions: 20 hours
Experimental: U2OS Cells (1×10^5) were plated in 6 well plates and transfected with 1 μg of a firefly luciferase reporter plasmid for NFκB activity and 0.1 μg of a plasmid encoding the Renilla luciferase. The cells were treated one day later with the indicated concentrations of cisplatin in the absence or in the presence of 20 μM HV-TAT48-57 or TAT-RaSGAP317-326 peptides during 20 hours. The data represent the firefly luciferase activity normalized to the Renilla luciferase activity and expressed as fold increase of the basal NFκB activity obtained in control untreated cells. The results correspond to the mean±standard deviation of three independent determinations. Asterisks denote significant differences between the indicated conditions (**, p<0.01; ***, p<0.001).
as §2
Luciferase assay was performed using the Dual-Luciferase® Reporter Assay from Promega (cat. no E1910). […] The firefly luciferase activity was recorded by mixing 20 μl of the lysate with 25 μl of the LARII Reagent and the Renilla luciferase activity was recorded by adding to the previous mix 25 μl of the Stop & Glo Reagent. For each measurement, light emission was quantified during 12 seconds using a Lumat LB 9501 luminometer (Berthold Technologies, Zurich, Switzerland).

GRKKRRQRRRGGWMWVTNLRTD [TAT-RasGAP317-326]
difference in translocation between non cancer cells and cancer cells ([1]; 3 hours): No difference in translocation
cellular uptake of the peptide ([1]; 3 hours at 37° C., four tumor and two non cancer cell lines): efficiently entered all these cell lines
activation of p38 MAPK pathway by peptide alone (p38 MAPKs): neither the control HIV-TAT48-57 peptide nor the TAT-RasGAP317-326 peptide activated these MAPK pathways
potency to enhance cisplatin killing of U2OS cells in presence of NFkB inhibitor (U2OS cells): unaffected by the NFkB inhibitor
activation of JNK pathway by peptide alone (JNK): neither the control HIV-TAT48-57 peptide nor the TAT-RasGAP317-326 peptide activated these MAPK pathways
enhancement of the ability of cisplatin, adriamycin and mitoxantrone to kill cancer cell lines ([2]; 20 hours, sub-lethal genotoxin concentrations): enhanced the ability of cisplatin, adriamycin, and mitoxantrone to kill the tested cancer cell lines
apoptosis induced in control conditions (no genotoxin) ([2]; cancer cell lines): did not, or only marginally, induce apoptosis in control conditions
NFkB activation in U2OS cells (single agent) (NFκB activity; 20 μM peptide or cisplatin): activated
NFkB activation with both cisplatin and peptide (NFκB activity; U2OS cells, cisplatin plus 20 μM peptide): additive activation of NFkB
